Test [1] concerns the target T1, Serine/threonine-protein kinase tousled-like 1 (Homo sapiens) (UniProt Q9UKI8).
T1 sequence (whole entry): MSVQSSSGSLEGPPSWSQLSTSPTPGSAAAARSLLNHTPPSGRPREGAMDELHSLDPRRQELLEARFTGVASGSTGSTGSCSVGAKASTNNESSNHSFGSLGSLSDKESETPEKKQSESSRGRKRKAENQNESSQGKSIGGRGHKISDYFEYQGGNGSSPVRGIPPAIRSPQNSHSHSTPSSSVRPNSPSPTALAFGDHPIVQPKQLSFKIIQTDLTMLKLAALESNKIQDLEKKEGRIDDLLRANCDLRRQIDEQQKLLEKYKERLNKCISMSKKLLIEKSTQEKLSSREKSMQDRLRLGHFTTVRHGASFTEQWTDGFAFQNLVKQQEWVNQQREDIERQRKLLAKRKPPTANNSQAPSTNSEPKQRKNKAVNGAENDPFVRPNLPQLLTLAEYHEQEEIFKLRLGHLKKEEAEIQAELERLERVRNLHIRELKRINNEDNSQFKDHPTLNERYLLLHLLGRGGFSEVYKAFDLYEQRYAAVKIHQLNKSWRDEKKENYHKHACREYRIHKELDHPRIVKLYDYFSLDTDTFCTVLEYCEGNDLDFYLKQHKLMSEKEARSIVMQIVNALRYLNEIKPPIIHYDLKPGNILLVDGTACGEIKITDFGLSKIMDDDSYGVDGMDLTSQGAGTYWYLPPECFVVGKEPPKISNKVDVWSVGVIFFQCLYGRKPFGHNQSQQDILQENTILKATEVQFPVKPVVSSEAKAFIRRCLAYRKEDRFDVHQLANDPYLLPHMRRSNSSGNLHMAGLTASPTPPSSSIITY
The test is described as follows: Selectivity interaction (ProQinase) EUB0000171b TLK1.

For test [2], the target named is Serine/threonine-protein kinase Nek7 (Homo sapiens) (UniProt Q8TDX7). The test is described as follows: Selectivity interaction (ProQinase) EUB0000171b NEK7.
Serine/threonine-protein kinase Nek7 (Homo sapiens), sequence (Q8TDX7 whole entry, looked up): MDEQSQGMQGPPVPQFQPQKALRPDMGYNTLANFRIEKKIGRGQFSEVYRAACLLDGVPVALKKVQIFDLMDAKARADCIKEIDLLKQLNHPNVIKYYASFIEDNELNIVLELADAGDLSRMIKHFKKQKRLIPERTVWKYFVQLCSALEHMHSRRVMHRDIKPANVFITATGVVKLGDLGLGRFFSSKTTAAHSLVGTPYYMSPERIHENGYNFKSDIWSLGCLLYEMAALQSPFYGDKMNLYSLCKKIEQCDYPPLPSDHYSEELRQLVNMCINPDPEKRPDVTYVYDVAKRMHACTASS
The target in test [3] is T2, Serine/threonine-protein kinase Nek1 (Homo sapiens) (UniProt Q96PY6).
T2 sequence (whole entry): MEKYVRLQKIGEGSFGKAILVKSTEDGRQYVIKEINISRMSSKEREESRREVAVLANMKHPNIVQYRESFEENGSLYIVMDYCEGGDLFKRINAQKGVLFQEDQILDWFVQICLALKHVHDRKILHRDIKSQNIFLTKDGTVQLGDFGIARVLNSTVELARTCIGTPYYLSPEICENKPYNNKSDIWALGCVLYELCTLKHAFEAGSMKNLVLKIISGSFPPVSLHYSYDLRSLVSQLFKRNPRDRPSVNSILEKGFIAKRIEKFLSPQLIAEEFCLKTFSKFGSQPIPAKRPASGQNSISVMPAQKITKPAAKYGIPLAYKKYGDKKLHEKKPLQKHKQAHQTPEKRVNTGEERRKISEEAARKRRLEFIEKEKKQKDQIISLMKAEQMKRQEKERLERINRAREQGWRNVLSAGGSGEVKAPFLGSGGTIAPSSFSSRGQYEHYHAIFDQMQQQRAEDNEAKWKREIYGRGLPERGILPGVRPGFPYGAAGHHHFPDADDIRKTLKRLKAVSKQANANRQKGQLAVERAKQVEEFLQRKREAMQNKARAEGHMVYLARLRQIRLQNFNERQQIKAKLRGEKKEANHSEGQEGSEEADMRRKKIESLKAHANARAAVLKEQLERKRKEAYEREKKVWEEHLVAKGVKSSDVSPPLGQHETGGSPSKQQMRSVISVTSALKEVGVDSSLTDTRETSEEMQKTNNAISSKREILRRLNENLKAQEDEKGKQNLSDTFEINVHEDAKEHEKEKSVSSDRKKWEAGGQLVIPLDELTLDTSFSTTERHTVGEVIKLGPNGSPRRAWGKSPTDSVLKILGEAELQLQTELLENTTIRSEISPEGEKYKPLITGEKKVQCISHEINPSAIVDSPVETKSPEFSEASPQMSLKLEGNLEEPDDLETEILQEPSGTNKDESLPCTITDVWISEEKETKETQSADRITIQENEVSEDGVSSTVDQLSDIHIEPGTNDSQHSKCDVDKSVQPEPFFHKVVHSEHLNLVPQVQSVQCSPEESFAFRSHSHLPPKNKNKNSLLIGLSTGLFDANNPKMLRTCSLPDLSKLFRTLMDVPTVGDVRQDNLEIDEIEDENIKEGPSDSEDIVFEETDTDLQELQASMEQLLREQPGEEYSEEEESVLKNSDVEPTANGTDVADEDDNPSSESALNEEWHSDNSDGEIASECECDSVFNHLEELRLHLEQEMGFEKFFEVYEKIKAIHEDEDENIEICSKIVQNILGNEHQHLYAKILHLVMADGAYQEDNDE
The following applies: at 10 µM.

Test [4] addresses Casein kinase II subunit alpha' (Homo sapiens) (UniProt P19784). Briefly: Selectivity interaction (KinomeScan (DiscoverX)) EUB0000045b CSNK2A2.
In test [5] the target is T3, Mixed lineage kinase domain-like protein (Homo sapiens) (UniProt Q8NB16).
T3 sequence (whole entry): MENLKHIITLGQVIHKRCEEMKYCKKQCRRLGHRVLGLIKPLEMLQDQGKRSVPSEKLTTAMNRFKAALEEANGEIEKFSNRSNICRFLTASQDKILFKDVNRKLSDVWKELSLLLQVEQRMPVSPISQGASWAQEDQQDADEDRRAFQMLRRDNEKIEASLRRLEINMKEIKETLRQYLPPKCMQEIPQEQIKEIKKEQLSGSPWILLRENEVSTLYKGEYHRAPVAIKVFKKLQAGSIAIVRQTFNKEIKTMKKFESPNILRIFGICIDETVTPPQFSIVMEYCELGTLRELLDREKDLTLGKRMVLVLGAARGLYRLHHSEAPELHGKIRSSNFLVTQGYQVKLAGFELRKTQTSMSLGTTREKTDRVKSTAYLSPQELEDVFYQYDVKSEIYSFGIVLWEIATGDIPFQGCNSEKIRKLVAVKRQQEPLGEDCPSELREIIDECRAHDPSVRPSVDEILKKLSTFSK
The test is described as follows: Selectivity interaction (ActivX KiNativ screen (kinase selectivity in THP-1 cell lysates)) EUB0000639a MLKL. The format is subcellular. The following applies: lysate.

The target in test [6] is Cyclin-dependent kinase 16 (Homo sapiens) (UniProt Q00536). Briefly: Selectivity interaction (ActivX KiNativ screen (kinase selectivity in THP-1 cell lysates)) EUB0000639a CDK16. It is filed as subcellular. The following applies: lysate, at 0.2 µM.
Cyclin-dependent kinase 16 (Homo sapiens), sequence (Q00536 whole entry): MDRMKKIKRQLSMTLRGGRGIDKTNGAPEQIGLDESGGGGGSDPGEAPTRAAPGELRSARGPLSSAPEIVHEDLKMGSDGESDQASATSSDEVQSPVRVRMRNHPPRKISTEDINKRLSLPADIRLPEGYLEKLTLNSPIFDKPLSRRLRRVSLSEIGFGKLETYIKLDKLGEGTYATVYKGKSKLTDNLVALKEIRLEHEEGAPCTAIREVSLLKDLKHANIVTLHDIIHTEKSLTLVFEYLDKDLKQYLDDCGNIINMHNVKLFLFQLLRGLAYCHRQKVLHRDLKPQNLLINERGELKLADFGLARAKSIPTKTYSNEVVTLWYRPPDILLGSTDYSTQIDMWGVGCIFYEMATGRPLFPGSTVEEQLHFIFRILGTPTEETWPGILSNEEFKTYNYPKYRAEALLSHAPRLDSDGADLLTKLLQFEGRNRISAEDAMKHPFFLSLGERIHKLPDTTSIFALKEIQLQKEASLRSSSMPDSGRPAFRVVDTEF
For test [7], the target named is Protein polybromo-1 (Homo sapiens) (UniProt Q86U86). Briefly: Selectivity interaction (Human bromodomain panel (DSF assay)) EUB0000233b PBRM1.
Protein polybromo-1 (Homo sapiens), sequence (Q86U86 whole entry): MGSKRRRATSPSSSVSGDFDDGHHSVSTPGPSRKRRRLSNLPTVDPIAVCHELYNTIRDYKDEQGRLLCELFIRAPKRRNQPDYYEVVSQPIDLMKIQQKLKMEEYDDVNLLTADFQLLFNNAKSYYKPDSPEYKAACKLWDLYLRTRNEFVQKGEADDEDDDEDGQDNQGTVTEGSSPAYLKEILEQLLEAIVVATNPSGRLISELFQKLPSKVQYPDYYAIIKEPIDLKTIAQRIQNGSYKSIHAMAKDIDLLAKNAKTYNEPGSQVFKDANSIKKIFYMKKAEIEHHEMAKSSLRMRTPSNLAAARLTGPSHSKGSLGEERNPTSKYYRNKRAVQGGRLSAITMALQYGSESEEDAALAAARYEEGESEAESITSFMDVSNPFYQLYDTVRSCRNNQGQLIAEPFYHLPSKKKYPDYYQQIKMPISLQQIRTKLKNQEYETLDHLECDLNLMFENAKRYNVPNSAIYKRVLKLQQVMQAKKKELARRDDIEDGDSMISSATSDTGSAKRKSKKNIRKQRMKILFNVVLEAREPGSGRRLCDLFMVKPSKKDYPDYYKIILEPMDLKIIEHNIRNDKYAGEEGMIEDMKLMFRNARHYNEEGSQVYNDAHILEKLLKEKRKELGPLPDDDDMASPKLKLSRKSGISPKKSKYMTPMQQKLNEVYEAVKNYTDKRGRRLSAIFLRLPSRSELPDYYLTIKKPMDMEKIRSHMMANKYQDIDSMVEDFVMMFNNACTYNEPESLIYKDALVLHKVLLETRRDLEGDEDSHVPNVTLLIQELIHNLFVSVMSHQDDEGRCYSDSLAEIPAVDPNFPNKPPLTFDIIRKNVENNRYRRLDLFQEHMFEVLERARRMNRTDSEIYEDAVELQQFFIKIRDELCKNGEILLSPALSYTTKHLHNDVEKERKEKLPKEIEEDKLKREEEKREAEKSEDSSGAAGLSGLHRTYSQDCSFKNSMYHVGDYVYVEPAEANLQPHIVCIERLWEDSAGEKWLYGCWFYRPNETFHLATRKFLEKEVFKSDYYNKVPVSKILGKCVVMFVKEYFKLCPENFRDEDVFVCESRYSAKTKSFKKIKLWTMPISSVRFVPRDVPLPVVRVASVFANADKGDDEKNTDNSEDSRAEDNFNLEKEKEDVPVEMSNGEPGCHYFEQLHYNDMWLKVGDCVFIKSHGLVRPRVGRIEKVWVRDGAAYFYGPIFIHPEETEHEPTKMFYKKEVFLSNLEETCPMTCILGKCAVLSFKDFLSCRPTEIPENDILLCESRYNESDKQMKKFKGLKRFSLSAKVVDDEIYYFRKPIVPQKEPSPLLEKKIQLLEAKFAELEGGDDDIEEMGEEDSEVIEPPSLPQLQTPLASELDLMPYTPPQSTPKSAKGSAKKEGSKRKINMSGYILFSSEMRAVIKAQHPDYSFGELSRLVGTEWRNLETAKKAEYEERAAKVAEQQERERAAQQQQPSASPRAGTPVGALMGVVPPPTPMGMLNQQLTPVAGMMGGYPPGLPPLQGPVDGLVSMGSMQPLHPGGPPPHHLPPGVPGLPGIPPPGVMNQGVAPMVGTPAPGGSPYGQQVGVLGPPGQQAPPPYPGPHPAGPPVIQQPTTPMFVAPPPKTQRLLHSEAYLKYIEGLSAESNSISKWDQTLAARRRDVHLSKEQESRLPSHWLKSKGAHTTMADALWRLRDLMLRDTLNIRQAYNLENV
For test [8], the target named is Angiopoietin-1 receptor (Homo sapiens) (UniProt Q02763). The test is described as follows: Selectivity interaction (KinomeScan (DiscoverX)) EUB0001619a TEK. The note with it: at 1 µM.
Angiopoietin-1 receptor (Homo sapiens), sequence (Q02763 whole entry): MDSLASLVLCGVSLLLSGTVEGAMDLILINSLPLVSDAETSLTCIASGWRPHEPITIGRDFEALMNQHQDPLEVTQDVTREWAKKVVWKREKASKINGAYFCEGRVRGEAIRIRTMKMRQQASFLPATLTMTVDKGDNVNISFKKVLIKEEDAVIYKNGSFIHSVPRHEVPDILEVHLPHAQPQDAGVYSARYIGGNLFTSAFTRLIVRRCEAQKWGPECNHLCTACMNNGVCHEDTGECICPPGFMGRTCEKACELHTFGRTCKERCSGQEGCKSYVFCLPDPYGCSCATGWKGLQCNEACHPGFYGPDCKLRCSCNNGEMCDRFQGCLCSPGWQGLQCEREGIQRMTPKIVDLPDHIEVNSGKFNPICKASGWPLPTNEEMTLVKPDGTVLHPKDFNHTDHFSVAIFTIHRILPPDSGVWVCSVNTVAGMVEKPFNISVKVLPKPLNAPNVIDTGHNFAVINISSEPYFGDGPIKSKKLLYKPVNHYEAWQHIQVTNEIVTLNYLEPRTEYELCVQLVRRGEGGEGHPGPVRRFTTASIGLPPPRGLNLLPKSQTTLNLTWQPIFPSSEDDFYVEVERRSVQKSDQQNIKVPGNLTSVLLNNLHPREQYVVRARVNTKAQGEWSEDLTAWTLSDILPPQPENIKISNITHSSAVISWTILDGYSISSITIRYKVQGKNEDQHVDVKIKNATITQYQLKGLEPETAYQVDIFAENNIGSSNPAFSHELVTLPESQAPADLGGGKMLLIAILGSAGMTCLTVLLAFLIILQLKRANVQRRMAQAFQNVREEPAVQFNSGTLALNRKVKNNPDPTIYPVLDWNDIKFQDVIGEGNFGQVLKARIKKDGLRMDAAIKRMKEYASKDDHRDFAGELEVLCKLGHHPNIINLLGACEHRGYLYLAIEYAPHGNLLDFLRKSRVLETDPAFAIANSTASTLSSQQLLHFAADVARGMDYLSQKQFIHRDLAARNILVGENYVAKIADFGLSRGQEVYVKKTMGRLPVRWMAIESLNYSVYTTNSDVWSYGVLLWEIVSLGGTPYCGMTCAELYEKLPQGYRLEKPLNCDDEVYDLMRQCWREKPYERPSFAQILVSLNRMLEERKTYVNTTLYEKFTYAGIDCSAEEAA

Where only a bound is given, the exact number is not on record here.

Casein kinase II subunit alpha' (Homo sapiens), sequence (P19784 whole entry, looked up, the tested form may be a part): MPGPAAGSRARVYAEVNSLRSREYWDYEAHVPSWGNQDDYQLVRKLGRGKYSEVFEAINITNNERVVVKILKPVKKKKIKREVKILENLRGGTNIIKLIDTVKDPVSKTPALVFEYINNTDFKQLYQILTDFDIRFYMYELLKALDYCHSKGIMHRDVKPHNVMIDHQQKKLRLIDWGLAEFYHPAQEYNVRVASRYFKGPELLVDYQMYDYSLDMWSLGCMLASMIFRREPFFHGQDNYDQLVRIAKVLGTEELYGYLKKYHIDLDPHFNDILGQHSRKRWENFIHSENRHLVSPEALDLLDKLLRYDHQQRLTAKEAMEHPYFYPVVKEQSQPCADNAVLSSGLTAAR

Consider `C=CC(=O)Nc1cccc(C(=O)Nc2ccc(Nc3cc(-c4[nH]c(SC)nc4C)ccn3)cc2)c1`, for which the % of control in test [1] (at 1 µM) was 97%; in test [1] (at 5 µM), 90%; in test [2] (at 1 µM), 91%; in test [2] (at 5 µM) it was 95%.
In test [3], `CCN(CC)CCCCNc1ncc2cc(-c3cc(OC)cc(OC)c3)c(NC(=O)NC(C)(C)C)nc2n1` showed a % of control of 100%.
In the case of `C=CC(=O)Nc1cc(-n2c(=O)ccc3cnc4ccc(-c5ccc(NS(C)(=O)=O)cc5)cc4c32)ccc1C`, the % of control in test [4] (at 1 µM) amounted to 100%; in test [4] (at 10 µM), 67%.
On to `CC[C@@H]1[C@H](F)C(=O)N[C@@H]1COc1nccc2cc(C(N)=O)c(OC)cc12` [ZIMLOVISERTIB], for which the % of inhibition in test [5] (at 0.01 µM) is -3.7%; in test [5] (at 0.04 µM), 7.2%; in test [5] (at 0.2 µM) it was 16.3%; in test [5] (at 1 µM), 42.3%; in test [5] (at 5 µM) it was 76.6%; in test [6] it was -0.8%.
On to `CN(C)CCCOc1ccc(-c2cc(NCCCn3cccn3)nc(S(C)(=O)=O)n2)cc1`, for which, in test [7], the dTM was < 2 K.
For the compound `N#Cc1cccc(-c2c[nH]c3ncnc(N4CCOCC4)c23)c1`, the % of control in test [8] turned out to be 100%.

The values above are taken from ChEMBL document CHEMBL5465560, “Selectivity Literature for EUbOPEN Chemogenomic Library” (2024).
